In general, melting point refers to the temperature, or range, at which the solid turns liquid.

For series [1], the system named is caspase3. The series is described as follows: Western blot of caspase3 / cleaved caspase3 (apoptosis) in RBL cells. The series is classed as cell-based, rat. The following applies: RBL cells. The protocol: (§1) RBL cells and mitochondrial pellets were lysed by the addition of lysis buffer (50 mM Tris-HCl pH 7.4, 1% Nonidet P-40, 0.25% Na-deoxycholate, 150 mM NaCl, 1 mM EDTA, 1 mM PMSF) supplemented with 15 μl protease inhibitor (Sigma-Aldrich). Cells and mitochondria were vortexed and incubated on ice for 15 min. The lysates were then centrifuged at 14,000 g for 15 min and pellets were discarded. The protein concentration of each sample was determined using Bradford Reagent (Sigma-Aldrich). Proteins were resolved by 10-15% SDS-PAGE under reducing conditions and transferred to polyvinylidene difluoride membranes (Millipore Billerica, Ma). The membranes were incubated in 5% fat-free milk and TBST (10 mM Tris-HCl, pH 7.4, 150 mM NaCl, 0.1% Tween 20) for 1 h and then in 5% BSA and TBST containing various dilutions of primary Abs for 18 h at 4° C. The membranes were washed three times with TBST for 5 mM before and after each incubation with secondary Ab. The proteins were detected with the appropriate secondary Ab (1 h; room temperature) coupled to HRP-conjugated goat anti-rabbit or anti-mouse Ab and visualized by chemiluminescence according to the manufacturer's instructions (Pierce).
(In general: In western blotting, separated proteins are transferred to a membrane and probed.)

A further series concerns c-myc. The series is described as follows: Western blot of c-myc (STAT3 target gene) in RBL cells. Type of series: cell-based, rat. The following applies: 3 h; for c-myc levels compared to control: 6 μM; for c-myc levels: concentrations higher than 6 μM. As for the experimental part: as §1
The levels of cleaved caspase3 were measured as an indicator of apoptosis, which could occur as a result of inhibiting STAT3's target genes. […] Since higher concentrations reduced the levels of c-myc and enhanced the levels of cleaved caspase3, the inventors concluded that 6 μM Mitocur-1/3 or lower would be suitable for the present invention. As these molecules are intended to be used in a time frame greater than 3 h, RBL cells were incubated with the same concentrations of Mitocur-1/3 for 24 h and the levels of cleaved caspase3 were determined by Western blot analysis.

Series [2] concerns BMMC. The series is described as follows: β-Hexosaminidase release assay (degranulation) in BMMC. Type of series: cell-based, mouse. Conditions: activated BMMC, 6 μM. The protocol:
(§2) RBL-2H3 cells were maintained in RPMI 1640 medium as previously described1. Bone marrow was isolated from 5-6 week-old mice, and BMMC were cultured in RPMI medium supplemented with 20 ng/ml interleukin-3 (IL-3) and 20 ng/ml SCF as previously described2, 3. Cells were generally grown for a minimum of 4 weeks and used when >90% of the population expressed FcεRI. BMMC and RBL cells were sensitized first with anti-DNP IgE monoclonal antibody (SPE-7; Sigma-Aldrich Corp.) and then challenged with DNP-BSA (Sigma-Aldrich Corp.). IgE antibody was centrifuged (18,000 g, 5 min) before use to remove aggregates. […] For glycolysis elimination cells were maintained in glucose-free RPMI supplemented with 10% dialyzed fetal calf serum and 5 mM galactose.
(§3) 1×104 RBL or 3×104 BMMC were immunologically activated as described above. After IgE incubation, the cells were washed three times with 5 mL of degranulation buffer (NaCl 130 mM, KCl 5 mM, Glucose 5.6 mM, MgCl2 1 mM, CaCl2 1.2 mM, Hepes pH 7.4 10 mM, BSA 0.1%) and resuspended in 200 μL of the same buffer with DNP-albumin for 30 min. The release of β-hexosaminidase was determined in triplicates in a 96-well plate. Aliquots (20 μL) of supernatants and cell lysates were incubated for 30 minutes with 100 μL of substrate solution (1.3 mg/mL p-nitrophenyl-b-D-2-acetamido-2-deoxyglucopyranozide in 0.1 M citrate [pH 4.51]). The reaction was stopped by the addition of 200 μL of 0.2 M glycine (pH 10.7). The plate OD was read in an enzyme-linked immunosorbent assay (ELISA) reader at a wavelength of 405 nm Percent release values for each experimental condition were calculated3.

For another series, the system named is CBMC. The series is described as follows: β-Hexosaminidase release assay (degranulation) in human cord blood-derived mast cells. Type of series: cell-based. Conditions: 12 μM, 3 h incubation.
For series [3], the system named is RBL cells. The series is described as follows: Oxygen consumption (Seahorse XF analyzer) in RBL cells. Type of series: cell-based, rat. The following applies: RBL cells, 3 h. The protocol: as §2
Oxygen consumption rate (OCR) was measured using an XF24 extracellular flux analyzer (Seahorse Biosciences, North Billeric, Mass., USA).

Series [4] has as its system RBL cells. The series is described as follows: TNF-α secretion of activated RBL cells. Conditions: activated RBL cells (FIG. 19G). The series is classed as cell-based, rat.
Series [5] relates to RBL cells. The series is described as follows: β-Hexosaminidase release assay (degranulation) in RBL cells. Type of series: cell-based, rat. The following applies: for Emax at 6 µM: Rattus norvegicus, 3 h incubation, read-out: maximum effect, reduction of degranulation. As for the experimental part: as §2, §3
The subject of series [6] is RBL cells. The series is described as follows: ATP determination (ATPLite luminescence) in RBL cells. The series is classed as cell-based, rat. The following applies: RBL cells. The protocol: as §2
ATP levels were measured using the ATPLite luminescence-based assay according to the manufacturer's instructions (Perkin Elmer, Waltham, Mass., USA).

In series [7] the test system is BMMC. The series is described as follows: Measurements of secreted mediators (ELISA) in activated BMMC. The series is classed as cell-based, mouse. Conditions: for Granzyme-B secretion: BMMC (data not shown); for cytokine secretion: IL-6 / cytokine secretion: TNF-α: immunologically activated BMMC, 6 μM (FIG. 21C). As for the experimental part:
1×106 BMMC were immunologically activated as described above. After IgE incubation, the cells were washed three times in PBS and incubated with DNP-albumin (Sigma-Aldrich) for 30 mM in complete growth medium. Supernatant was collected and Granzyme B and TNFα content were measured using ELISA Kits (eBioscience).
Background: In an ELISA, binding on a coated surface is turned into a signal by an enzyme label.

Series [8] relates to caspase3. The series is described as follows: Western blot of cleaved caspase3 in BMMC. Conditions: 6 μM (FIG. 21D). The series is classed as cell-based, mouse.
For a further series, the system named is plasma histamine. The series is described as follows: In vivo histamine release assay, passive systemic IgE-mediated anaphylaxis model. Conditions: 3.5 h before DNP-BSA challenge. As for the experimental part:
C3H 6-7 week male and female WT mice were purchased from Jackson Lab (Cambridge, Mass., USA), mice were fed a regular diet and with drinking water ad libitum. Experiments were approved by The Hebrew University Ethical Committee for Animal Experimentation.
WT C3H mice were sensitized with 3 μg murine IgE anti-DNP mAb SPE-7 by means of intravenous injection in the tail vein. Twenty-four hours later, mice were treated with 40 mg/kg of static dissolved in corn oil or corn oil alone for 2.5 hours, then mice were challenged with i.v. injection of DNP-BSA (250 μg per mouse). 100 μl of blood was collected immediately and added to an equal volume of pre-cold Alsever's Solution. Blood was centrifuged 2000 g for […] and plasma supernatant was collected. Plasma histamine levels were determined by using competitive ELISA (IBL International Gmbh, Hamburg, Germany).
STAT3's role in vivo was investigated by evaluating the response to allergic stimulation in Stattic-treated mice. The passive systemic IgE-mediated anaphylaxis model was used. Mice were injected (i.v.) with IgE anti-DNP. Twenty four hours later they were injected (i.p.) with Stattic (80 mg/kg) or corn oil which was used as control. Three and a half hours later the mice were challenged with DNP-BSA for 1.5 minutes. Plasma was collected, and histamine levels were measured by competitive ELISA. Histamine secretion in Stattic-treated mice was 43% less than that in control mice (FIG. 17, p<0.05).
Mitocur-1/3 effectiveness in vivo was investigated by evaluating the response to allergic stimulation in Mitocur-1/3-treated mice. The passive systemic IgE-mediated anaphylaxis model was used. Mice were injected (i.v.) with IgE anti-DNP. Twenty four hours later they were injected (i.p.) with Mitocur-1 (80 mg/kg) and Mitocur-3 (40 mg/kg). Corn oil was used as control. Three and a half hours later the mice were challenged with DNP-BSA for 1.5 minutes. Plasma was collected, and histamine levels were measured by competitive ELISA. Histamine secretion in Mitocur-1-treated mice was 35% less than that in control mice (FIG. 22A, p<0.05).

The conditions of series [9]: cited from earlier work.
Where [10] appears, read: concentrations higher than 6 μM, 3 h.

Consider `O=C(/C=C/c1ccc(OCCC[P+](c2ccccc2)(c2ccccc2)c2ccccc2)cc1)CC(=O)/C=C/c1ccc(OCCC[P+](c2ccccc2)(c2ccccc2)c2ccccc2)cc1` [Mitocur-3, 1,7-{4-[3-(triphenylphosphonium)propoxy]phenyl}hepta-1,6-diene-3,5-dione dichloride], for which the melting point fell in the range of 145 to 160 °C. Further, the cleaved caspase levels result in the series with caspase3 [1] (6 μM, 3 h) is “no change”. The “cleaved caspase3 levels” value with caspase3 [1] (6 μM, 24 h) is recorded as “slight change”. For the same compound, the “cleaved caspase3 levels” value in the series on caspase3 [1] (setting [10]) is given as “enhanced”. Besides, in the series on c-myc, the “c-myc levels compared to control” value was “no change” and the c-myc levels entry was “reduced”. Besides, the degranulation levels entry in the series with BMMC [2] (3 h incubation) is “reduced”. Besides, the degranulation levels result with BMMC [2] (24 h incubation) was “reduced”. For the same compound, in the series with CBMC, the degranulation levels result is reported as “successfully reduced”. The oxygen consumption result with RBL cells [3] (100 μM) is listed as “reduced”. The oxygen consumption entry with RBL cells [3] (6-50 μM) was “No significant reduction”. The TNF-α secretion result with RBL cells [4] was “completely abolished”. Besides, in the series with RBL cells [5] (RBL cells), the Emax at 6 µM is more than 50%. In addition, in the series with RBL cells [6] (100 μM, 3 h (data not shown)), the ATP levels result is “reduced”. Further, the ATP levels entry in the series on RBL cells [6] (6-50 μM, 3 h) is given as “No significant reduction”. Also, in the series on BMMC [7], the Granzyme-B secretion entry is “abolished”, the “cytokine secretion: IL-6” value is “totally abolished” and the “cytokine secretion: TNF-α” value is reported as “totally abolished”. For the same compound, the “cleaved caspase3 levels” value with caspase3 [8] is reported as “no change”. In the series with plasma histamine (mice, Mitocur-3 40 mg/kg i.p.), the “decrease in histamine secretion” value is reported as 32.4%.
`COc1cc(/C=C/C(=O)CC(=O)/C=C/c2ccc(OCCC[P+](c3ccccc3)(c3ccccc3)c3ccccc3)c(OC)c2)ccc1OCCC[P+](c1ccccc1)(c1ccccc1)c1ccccc1` [Mitocur-1, 1,7-Bis{3-methoxy-4-[3-(triphenylphosphonium)propoxy]-phenyl}hepta-1,6-diene-3,5-dione dichloride] gave a melting point of 130 to 140 °C. Also, in the series on caspase3 [1] (6 μM, 3 h), the cleaved caspase levels result is on record as “no change”. In the series with caspase3 [1] (setting [10]), the “cleaved caspase3 levels” value is “enhanced”. In the series on c-myc, the “c-myc levels compared to control” value is “no change” and the c-myc levels entry is listed as “reduced”. Further, the degranulation levels entry in the series on BMMC [2] (3 h incubation) was “reduced”. For the same compound, the degranulation levels entry in the series on BMMC [2] (24 h incubation) is recorded as “reduced”. In addition, in the series with RBL cells [3] (100 μM), the oxygen consumption result is “reduced”. The oxygen consumption entry in the series on RBL cells [3] (6-50 μM) is recorded as “No significant reduction”. The TNF-α secretion entry in the series with RBL cells [4] is reported as “completely abolished”. Besides, the Emax at 6 µM with RBL cells [5] (RBL cells) is more than 50%. Also, the ATP levels result with RBL cells [6] (100 μM, 3 h (data not shown)) was “reduced”. In the series with RBL cells [6] (6-50 μM, 3 h), the ATP levels entry is reported as “No significant reduction”. Besides, in the series with BMMC [7], the Granzyme-B secretion entry is recorded as “abolished”, the “cytokine secretion: IL-6” value is “totally abolished” and the “cytokine secretion: TNF-α” value is “totally abolished”. Also, the “cleaved caspase3 levels” value with caspase3 [8] was “no change”. In the series with plasma histamine (Mitocur-1 80 mg/kg i.p.), the “histamine secretion less than in control mice” value was found to be 35%.
Regarding `COc1cc(/C=C/C(=O)CC(=O)/C=C/c2ccc(O)c(OC)c2)ccc1O` [curcumin, (1E,6E)-1,7-Bis(4-hydroxy-3-methoxyphenyl)-1,6-heptadiene-3,5-dione], the “degranulation (β-hexosaminidase release)” value in the series with RBL cells [5] (RBL cells, curcumin 12.5, 25, 50 and 100 μM, 10 min (FIG. 19A)) is given as “significantly reduced”. Moreover, in the series with RBL cells [5] (activated RBL cells, 10 min incubation with curcumin (FIG. 8)), the degranulation levels entry is reported as “completely abolished”. Also, the “pKa of the two phenolic OH groups” value in series [9] is 10-10.5.

The record behind these values is patent publication US20160113900A1, “INHIBITORS OF MITOCHONDRIAL STAT3 AND USES THEREOF IN MODULATION OF MAST CELL EXOCYTOSIS” (Yissum Research Development Company of the Hebrew …, priority 2014, published 2016).
